# Data as given in patent US20230134935A1, “MEDICAL USE OF DARIDOREXANT” (Idorsia Pharmaceuticals Ltd, priority 2020, published 2023).
# Entries after “also recorded” stand apart in the source; their conditions may differ.
# Key:
# [1] = test system: animal model of agitation; conditions: in vivo; cited from earlier work
# [2] = test system: adult and elderly subjects with insomnia disorder; test: Phase 3 double-blind placebo-controlled polysomnography study, Example A (NCT03545191), 25 mg and 50 mg; assay type: in vivo, human; conditions: for IDSIQ sleepiness domain score: month 1 and month 3
# Experimental: (§1) Daridorexant entered two phase 3 multi-center, double-blind, randomized, placebo-controlled, parallel-group, polysomnography study to assess the efficacy and safety of ACT-541468 in adult and elderly subjects with insomnia disorder. (NCT03545191, EudraCT Number: 2017-004642-20 testing strengths of 25 mg and 50 mg; and NCT03575104, EudraCT Number: 2017-004643-20 testing strengths of 10 mg and 25 mg). To assess daytime functioning, said phase 3 studies investigate as a secondary endpoint the IDSIQ sleepiness domain score, using as a dedicated patient reported outcome (PRO) instrument the Insomnia Daytime Symptoms and Impacts Questionnaire (IDSIQ) (S. Hudgens et al., The Patient—Patient-Centered Outcomes Research (2021) 14:249-268). The instrument is based on the Daytime Insomnia Symptom Scale (DISS) (Buysse et al., Sleep Medicine 8 (2007) 198-208; Buysse et al., SLEEP 29(9) (2006) 1155-1173) and designed to characterize and compare daytime symptoms in insomnia. The IDSIQ is structured in three domains (alertness/cognition; (negative) mood; tiredness/sleepiness) and contains overall 14 items, each based on an 11-point numeric rating scale. For each domain score the total rating score of all associated items is considered.
# Example A): Multi-Center, Double-Blind, Randomized, Placebo-Controlled, Parallelgroup, Polysomnography Study to Assess the Efficacy and Safety of ACT-541468 in Adult and Elderly Subjects with Insomnia Disorder
# The study comprises the following 3 phases: the screening phase, the treatment phase, and the safety follow-up phase. The screening phase starts with the signature of the informed consent form at Visit 1 and ends at Randomization (Visit 4), provided the subject fulfills all the eligibility criteria. It includes the Screening period and the Run-in period. The screening phase lasts […]. The Screening period starts with Visit 1 and ends at Visit 2. During the Screening period, the investigator verifies eligibility criteria and eligible subjects perform a one-night polysomnography (PSG) assessment. The Screening period lasts 7 to 18 days to allow time to perform all required procedures at Visit 1, the PSG assessment and collect the minimum number of eDiary entries (i.e., 7 days) between Visit 1 and Visit 2. The Run-in period starts with Visit 2 and ends at Randomization (i.e., Visit 4). At Visit 2 eligible subjects are allocated a single-blinded placebo treatment that is taken daily. During the Run-in period subjects come to the site for Visit 3, which consists of 2 PSG nights and is performed when the subject has completed the eDiary for at least 7 days and eligibility is confirmed. The Run-in period lasts 13 to 24 days, to allow collection of the minimum number of eDiary entries (i.e., 7 days), perform 2 PSG nights at Visit 3, and receive the eligibility confirmation from the PSG central reader. The double-blind (DB) treatment phase lasts 3 months. It starts at Randomization (Visit 4). DB study treatment is taken daily. A safety telephone call is performed at Visit 5 to collect information about adverse events (AEs) and concomitant medications. Sleep parameters of each subject are objectively assessed with 2 consecutive PSG nights at Visit 6 and Visit 8. A safety visit without PSG night is performed at Visit 7. An eDiary is completed every day during the treatment phase. End-of-Double-Blind-Treatment (EODBT) is reached in the second morning of Visit 8. The safety follow-up phase starts after EODBT. It consists of a single-blind placebo run-out period of 7 days and a safety follow-up period. The Run-out period starts in the evening of Visit 9. Visit 9 consists of one PSG night on single-blind placebo treatment. Visit 9 is followed by 6 days at home with single-blind placebo treatment. The eDiary is completed every day during the Run-out period. The end of the Run-out period (End-of-Treatment [EOT]) is reached after all visit assessments have been performed at Visit 10. […]
# [3] = test system: rat; conditions: cited from earlier work
# [4] = test system: adult and elderly subjects with insomnia disorder; test: Phase 3 double-blind placebo-controlled polysomnography study, Example B (NCT03575104), 10 mg and 25 mg; assay type: in vivo, human
# Experimental: as §1
# Example B): Multi-Center, Double-Blind, Randomized, Placebo-Controlled, Parallelgroup, Polysomnography Study to Assess the Efficacy and Safety of ACT-541468 in Adult and Elderly Subjects with Insomnia Disorder
# The study (NCT03575104) is conducted in analogy to the study of Example A), using daridorexant strengths of 10 mg and 25 mg.
# [5] = test system: subjects with insomnia disorder; conditions: cited from earlier work; for visual analog scales (VASs) on morning sleepiness, daytime alertness, and daytime ability to function: compared with placebo at week 2, higher doses, not sustained at week 4
# [6] = in vivo; cited from earlier work
# [7] = 25 mg and 50 mg once daily in the evening, Month 1 and Month 3, vs placebo
# [8] = both doses (25 mg, 50 mg), all timepoints, vs placebo
# [9] = 10 mg, month 1 and month 3, vs placebo
# [10] = 25 mg, month 1 and month 3, vs placebo
smiles,measurement,setting,value
"COc1ccc(-n2nccn2)c(C(=O)N2CCC[C@@]2(C)c2nc3c(C)c(Cl)ccc3[nH]2)c1 [daridorexant, [(S)-2-(5-Chloro-4-methyl-1H-benzoimidazol-2-yl)-2-methyl-pyrrolidin-1-yl]-(5-methoxy-2-[1,2,3]triazol-2-yl-phenyl)-methanone]",activity in animal model of agitation,[1],active
same,"change from baseline in LPS (latency to persistent sleep, sleep onset)",[2]; [7],significant reductions
same,"change from baseline in WASO (wake time after sleep onset, sleep maintenance)",[2]; [7],significant reductions
same,change from baseline in subjective total sleep time (sTST),[2]; [7],increased the subjective total sleep time (sTST) significantly
same,incidence of somnolence,[2]; 25 mg and 50 mg vs placebo,low (lower with daridorexant 50 mg versus placebo) and not dose dependent
same,IDSIQ sleepiness domain score,"[2]; 25 mg, vs placebo",numerical trend; also recorded: numerical improvement
same,falls,[2]; 50 mg dose group compared to placebo,Fewer falls
same,IDSIQ sleepiness domain score,"[2]; 50 mg, vs placebo",significantly improved
same,daytime functioning over time,[2]; 3 months of treatment,gradual improvement
same,"improvements in sleep (WASO, LPS, sTST) over time",[2]; 3 months of treatment,maintained over 3 months; also recorded: maintained over three months
same,tolerability / safety profile,[2]; adult and elderly patients,well tolerated
same,IDSIQ alert/cognition domain score,[2]; [8],decreased; also recorded: improved
same,IDSIQ mood domain score,[2]; [8],decreased; also recorded: improved
same,IDSIQ total score,[2]; [8],decreased; also recorded: improved
same,rate of adverse events,[2]; both treatment doses vs placebo,comparable between placebo and daridorexant
same,next-morning sleepiness effect assessed by visual analog scale (VAS),[2]; every morning,no next-morning sleepiness effect
same,most frequent treatment-emergent adverse events (TEAEs),[2]; in vivo,nasophyringitis and headache
same,"suicide, suicidal ideation, or self-injury",[2]; in vivo,"no suicide, suicidal ideation, or self-injury"
same,number of serious adverse events,[2]; placebo group compared to daridorexant treatment groups,higher in the placebo group
same,rebound insomnia or withdrawal symptoms upon discontinuation,[2]; upon discontinuation,"no rebound insomnia, or withdrawal symptoms"
same,crossing of the blood-brain barrier,[3],cross the blood-brain barrier
same,"sleep promotion (effects on active wake, home cage activity, NREM sleep, REM sleep)",[3],promote sleep
same,WASO,[4]; [9],not
same,sTST,[4]; [9],not
same,IDSIQ sleepiness domain,"[4]; 25 mg, both time points",numerical trend
same,LPS after log-transformation,"[4]; 25 mg, month 1 and month 3",significantly reduced; also recorded: significant after log-transformation
same,WASO,[4]; [10],significantly decreased
same,sTST,[4]; [10],increased
same,decrease in LPS,"[4]; 25 mg, vs placebo, without log-transformation",did not reach statistical significance
same,morning sleepiness (sleepiness the following day),[5]; any dose vs placebo,no difference
same,"visual analog scales (VASs) on morning sleepiness, daytime alertness, and daytime ability to function",[5],nonsignificant increases
same,wake time after sleep onset,"[5]; phase 2, subjects with insomnia disorder",dose-dependent reduction
same,next-morning residual drug effects,[5]; up to and including the highest dose (50 mg),absence of such effects
Cc1ccc(-n2nccn2)c(C(=O)N2CCN(c3nc4cc(Cl)ccc4o3)CC[C@H]2C)c1 [suvorexant],halflife (t½),[6],12 h
"Cc1ccc(-c2nc3ccc(C)cn3c2CC(=O)N(C)C)cc1 [zolpidem, reference compound]","visual analog scales (VASs) on morning sleepiness, daytime alertness, and daytime ability to function",[5],pattern was also true
